Assay results: patent US9873705B2, “Vinylogous thioester compounds and methods of use” (THE TRUSTEES OF DARTMOUTH COLLEGE, priority 2015, dated 2018)

Experiments:
[1] = system: p62 and LC3B protein expression in U87-MG cells; test: Western blot of autophagy markers p62 and LC3B; assay type: cell-based, human; settings: U87-MG, Western blot, 2 μM Y102, 50 μM HCQ
From the text: Ras dysregulated tumors depend on autophagy to remove damaged mitochondria and allow for their survival. […] LC3B I is lipidated to form LC3B II following induction of autophagy. LC3B II is recruited and subsequently integrated into the autophagosome. p62 functions as an adaptor protein in autophagy by binding to both ubiquitin-labeled damaged cargo such as protein aggregates or mitochondria and LC3B II to facilitate cargo uptake into the autophagosome. Degradation of the cargo occurs when the autophagosome fuses with the lysosome; when autophagy is inhibited with hydroxychloroquine (HCQ), a drug that prevents acidification of the lysosome, both LC3B II and p62 accumulate as derogation of the autophagosome is prevented, making them valuable markers of autophagic flux.
The data for FIG. 4 was obtained as follows: U87-MG cells were plated in 6-well plates at a concentration of 500,000 cells/well and allowed to adhere overnight. Cells were treated for 12 h with either DMSO or 2 μM Y102, followed by an additional 12 h co-treatment with or without 50 μM HCQ. Following treatment, cells were harvested using 0.25% trypsin, rinsed with PBS, and lysed with 75 μL modified RIPA buffer (50 mM NaCl, 1% v/v nonidet P40, 0.5% w/v sodium deoxycholate, 0.05% w/v sodium dodecyl sulfate, 50 mM Tris pH 8.0) containing 1 mM NaVO4, 1 mM NaF, 1 mM phenylmethylsulfonyl fluoride, 0.1 μg/mL leupeptin, 100 μM benzamidine HCl, 1 μM aprotinin, 0.1 μg/mL soybean trypsin inhibitor, 0.1 μg/mL pepstatin, and 0.1 μg/mL antipain. Protein was quantified using a BCA assay kit (Pierce). 40 μg of protein prepared in 1× Laemmli sample buffer (50 mM Tris pH 6.8, 0.02% w/v bromophenol blue, 2% w/v sodium dodecyl sulfate, 10% v/v glycerol, 1% v/v beta-mercaptoethanol, 12.5 mM EDTA) was separated on a 4-15% polyacrylamide gel using sodium dodecyl sulfate-polyacrylamide gel electrophoresis. Protein was transferred to nitrocellulose membrane, blocked in 5% nonfat milk in TBST, and probed with primary antibodies anti-LC3BI/II (Cell Signaling, 1:1000, overnight at 4° C.), anti-p62/SQSTM-1 D-3 (Santa Cruz, 1:1000, 1 h at room temperature), or anti-α-tubulin B-1-2-5 (Santa Cruz, 1:10000, 1 h at room temperature) in 2% nonfat milk in TBST. Blots were incubated in 1:20,000 anti-rabbit HRP or 1:10,000 anti-mouse HRP secondary antibodies diluted in 2% nonfat milk in TBST for 1 h at room temperature. Film was exposed to standard ECL (Pierce)-coated blots and developed using a standard film processor.

[2] = system: NF1 deficient cells compared to NF1 wild type cells; test: Bafilomycin A1 dose response curve; assay type: cell-based; settings: representative of two replicates
From the text: This graph is representative of two replicates.

Row | SMILES | p62 accumulation (autophagy marker) ([1]; 24 hours) | LC3B I/II conversion (LC3B II accumulation) ([1]; single agent) | sensitivity of NF1 deficient vs NF1 wild type cells [2]
1 | CCN(CCO)CCCC(C)Nc1ccnc2cc(Cl)ccc12 (stereo not drawn) [HCQ, hydroxychloroquine, reference compound] | accumulation of p62 | LC3B I/II conversion as seen | –
2 | CO/C1=C\C(C)=C\[C@@H](C)[C@@H](O)[C@@H](C)C/C(C)=C/C=C/[C@H](OC)[C@@H]([C@@H](C)[C@@H](O)[C@H](C)[C@@]2(O)C[C@@H](O)[C@H](C)[C@@H](C(C)C)O2)OC1=O [Bafilomycin A1] | – | – | selectively sensitive
